Data as given in patent US10045940B2, “Composition comprising an antibiotic and a corticosteroid” (Intervet Inc., priority 2008, dated 2018).

Test: Storage stability of the formulation of Table 1 (prior formulation without fatty acid)
Type: physicochemical
Conditions: in the formulation of Table 1
Experimental: Applicants have observed an increase in at least one mometasone degradation product over time when the above formulation is stored at room temperature. […] The formation of the degradation product generally can be minimized by storing the formulation at colder temperatures (e.g., 5° C.). There is, however, a need for a formulation that can remain stable at greater temperatures (e.g., room temperature). This invention provides such a formulation.

C[C@@H]1CN(c2c(F)c(F)c3c(=O)c(C(=O)O)cn(C4CC4)c3c2F)C[C@H](C)N1 [orbifloxacin]
Effect of the orbifloxacin in the formulation on formation of the mometasone degradation product: accelerates the formation of the degradation product
